The values below come from patent US20260191817A1, “FIBROBLAST MODULATORS IN STROMA-RICH TUMORS” (UNIVERSITEIT GENT, priority 2022, published 2026).

Data set [1] has as its system human invasive MCF-7/6 mammary carcinoma cells. Kind of data set: Chick heart invasion (CHI) assay with MCF-7/6 aggregates. It counts as cell-based. The conditions noted are these: MCF7/6, 192 h, lowest concentration at which an anti-invasive effect (histological grade I or II) was observed, 8 days, read-out: Lowest active concentration. The method, then: Chick heart invasion assays were performed as described earlier (Bracke et al. 2014). Precultured heart fragments of 9-day-old chicken embryos were confronted with MCF-7/6 aggregates on top of a semi-solid agar at 37° C. overnight, after which the confronting pairs were cultured in suspension for 8 days at 37° C., 10% CO2 in presence or absence of a test compound (in duplo). This procedure can also be performed with aggregates of 4T1-Luc cells, for which the suspension culture of the confronting pairs is performed for 3.5 days. All compounds were evaluated at 1 μM and 100 nM; depending on the outcome higher or lower concentrations were subsequently evaluated. Upon fixation in Bouin-Hollande, the cultures were dehydrated and embedded in paraffin. Sections of the confrontation cultures were stained with hematoxylin-eosin are blinded and scored by a trained person (Bracke et al., 2014).
In the chick heart invasion assay cancer cells are confronted with a fragment of normal tissue, so as not to neglect the contribution of the host tissue in the micro-ecosystem that governs tumor behavior. As such, precultured heart tissue fragments (PHFs), dissected from 9-day-old chicken embryos, may be confronted with aggregates of human invasive MCF-7/6 mammary carcinoma cells or other cells in the presence of a certain concentration of a test compound. After eight days for MCF-7/6, or another period depending on the cell type, the interaction between the cancer cells and the PHF is evaluated histologically and classified along a 5-grades subjective scale (Bracke et al. 2014). Grades III and IV are typical for invasion, while grades 0, I and II correspond to absence of invasion. Compounds that inhibit invasion of confronting cancer cells i.e. from III/IV to 0/I/II, are determined as anti-invasive. Possible alternative assays generally known in the art are the type I collagen invasion assay, wound healing assay and the matrigel invasion assay.
The chick heart invasion (CHI) assay is a phenotypic assay that confronts precultured heart tissue fragments (PHFs, ‘normal tissue’), obtained from 9-day-old chicken embryos, with aggregates of human invasive MCF-7/6 mammary carcinoma cells (Bracke et al. 2014). In the control situation, the MCF-7/6 cells encircle, invade and destroy the PHF over an 8-day period. Invasion in this assay is defined as the progressive occupation and destruction of the PHF by the MCF-7/6 cells. Three-dimensional reconstruction of this interaction is obtained by microscopic analysis of all consecutive histological sections of the culture. The read-out is an invasion score according to a 5-grades histological scale.
The CHI closely reproduces the temporal, spatial and histological invasion patterns in man. The co-culture set-up probes for effects on both tumor cells and host tissue, and thus interrogates potential pharmacological targets in either interaction partner. Its use of histological evaluation allows discerning anti-invasive action from cytotoxicity or other effects.
We have submitted flavones B1-B4, flavanones B5-B8 and the intermediate 2′-hydroxychalcones A9, All and A12 to the chick heart invasion assay using MCF-7/6 aggregates. All compounds were evaluated at 1 μM and 100 nM; depending on the outcome higher or lower concentrations were subsequently evaluated. […] This table also includes CHI data on chalcones A1, A2 and A5.

Data set [2] concerns HCA2 hTERT dermal fibroblasts. The experiment in a line: AFM spheroid stiffness, HCA2 hTERT dermal fibroblasts. It counts as cell-based. The settings on record: HCA2 hTERT normal dermal fibroblasts; 1 μM, 48 h. The method, then:
(§1) Selectivity for CAFs with respect to normal fibroblasts and other cell types was assessed by performing an identical experiment with normal fibroblasts and other cell types, where compounds were considered selective for CAFs if they only modulate CAF stiffness.
(§2) U-shaped, 384-well ULA plates (cat. no. MS-9384UZ, S-bio) were seeded with a suspension of cell-specific culture media with cells. Cells were allowed to form spheroids for an appropriate time under treatment conditions before use in experiments. Cell culture dishes (cat. no. 734-2814, VWR) were filled with collagen gel and placed at 37° C. for an appropriate time to allow solidification. For each condition, spheroids were pooled in one cell culture dish. The medium was removed (stored at 37° C.) to promote attachment of the bottom of each spheroid to the collagen gel. The cell culture dishes were incubated at 37° C. After the incubation period, the stored medium was carefully (prevent detachment of spheroids) added to the dishes.
(§3) Mechanical measurements were performed using an atomic force microscope. To indent the spheroids an in-house made colloidal probe was used. Force curves were collected using an appropriate setpoint and probe speed (depending on the stiffness of the spheroids). On each spheroid multiple force curves were collected. Collected curves were then processed using the JPK DP software. Young's modulus was extracted from the force curves. All experiments were performed in biological triplicate.
(§4) To generate 3D cultures mimicking the complexity and pathophysiology of in vivo tumors, spheroids were used (cfr. point 4). Spheroids are considered to better simulate cellular heterogeneity, nutrient and oxygen gradients, cell-cell interactions, cell-matrix interactions, gene expression profiles, stromal interactions, therapeutic responses, multicellular resistance, drug penetration and anti-apoptotic signaling.

The subject of data set [3] is primary glioblastoma (GBM) cells. The experiment in a line: AFM spheroid stiffness, primary glioblastoma cells. It is filed as cell-based, human. The conditions noted are these: 48 h. The method, then:
as §1, §2, §3, §4

Data set [4] deals with primary human atrial fibroblasts. Kind of data set: AFM spheroid stiffness, primary human atrial fibroblasts. It counts as cell-based. The conditions noted are these: 1 μM, 48 h. The method, then: as §1, §2, §3, §4
For data set [5], the system named is 13B2 hTERT, CT5.3 hTERT, HCA2 hTERT, MCF-7/6 and 4T1-Luc cells. Kind of data set: 3D CellTiter-Glo Cell Viability Assay (spheroids). It is filed as cell-based. The conditions noted are these: 3D spheroids; up to 100 μM; 48 h. The method, then:
The half maximal inhibitory concentration (IC50) of A1 was evaluated using a CellTiter-Glo® 2.0 Cell Viability Assay (cat. no. G9243, Promega) and a CellTiter-Glo® 3D Cell Viability Assay (cat. no. G9681, Promega). 13B2 hTERT cells (2D: 2×10^5, 3D: 8×10^4) were plated in each well of a Nunc™ MicroWell™ 96-Well, Nunclon Delta-Treated, Flat-Bottom Microplate (cat. no. 167008, Thermo Fisher Scientific) for 2D experiments or 96-well ULA plate (cat. no. MS-9096UZ, S-bio) in a volume of 90 μL/well. A1 was serially diluted in the appropriate medium to 10× the final concentrations. For each treatment condition, 10 μL was added to 3 replicate wells (final concentrations ranging from 1-100 μM) and plates were incubated for 48 h.
The CellTiter-Glo Cell Viability Assay was performed according to manufacturer's instructions. Briefly, the plates and the CellTiter-Glo® Reagent were equilibrated to room temperature (RT). The CellTiter-Glo® Reagent was added to each well in a 1:1 (v/v) ratio. For 2D experiments, cell lysis was induced by placing the plates on an orbital shaker for 2 min, followed by stabilization of the luminescent signal for 10 min. […] Afterwards, the luminescence was measured using a Synergy™ HTX Multi-Mode Microplate Reader (BioTek). The IC50 value was determined using the Graphpad Prism software. […]

Entries after “also recorded” stand apart in the source; their conditions may differ.

For `COc1cc(C(=O)/C=C/c2ccc(F)cc2)cc(OC)c1OC` [Compound A1, 3-(4-Fluorophenyl)-1-(3,4,5-trimethoxyphenyl)prop2-en-1-one], the minimal effective concentration in data set [1] is 0.01 µM. Also, the spheroid stiffness result is recorded as “no effect” in data set [2], “no effect” in data set [3] (1 μM), “nor did it change” in data set [3] (0.03-3 μM) and “did not alter; also recorded: no effect” in data set [4]. For the same compound, in data set [5], the “response of cells cultured as spheroids (viability)” value is reported as “no response”.
For `COc1cc2oc(-c3ccc(F)cc3)cc(=O)c2c(OC)c1OC` [Compound B1, 2-(4-Fluorophenyl)-5,6,7-trimethoxy-4H-chromen-4-one], in data set [1], the minimal effective concentration came to 0.01 µM. Moreover, the spheroid stiffness entry in data set [2] is “no effect”; in data set [3] (1 μM) it was “no effect”; in data set [4] it was “did not alter; also recorded: no effect”. For the same compound, in data set [5], the “response of cells cultured as spheroids (viability)” value is given as “no response”.
